Results taken from PubChem BioAssay (NCI).
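Where inhibition never reached the appropriate level, the endpoint shown equals the highest concentration tested. Otherwise, values were interpolated linearly from a five-concentration, 48-hour dose response in 96-well plates. The concentration for full growth arrest is given as TGI.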

What was measured:
Assay in all cases: NCI anticancer screen, dose series, 48 h
COLO 205 colon = tested on: COLO 205 colon
KM20L2 colon = tested on: KM20L2 colon
LXFL 529 NSCLC = tested on: LXFL 529 NSCLC
OVCAR-4 ovarian = tested on: OVCAR-4 ovarian
SF-268 CNS = tested on: SF-268 CNS
SK-MEL-5 melanoma = tested on: SK-MEL-5 melanoma
U251 CNS = tested on: U251 CNS

## Cc1cc(=O)[nH]c(NN2C(Cl)C(=O)C2c2ccc([N+](=O)[O-])cc2)n1 (configuration not stated)
COLO 205 colon
  TGI: 35.9 µM
KM20L2 colon
  TGI: 56.7 µM
LXFL 529 NSCLC
  TGI: 20.8 µM
OVCAR-4 ovarian
  TGI: 28.8 µM
SF-268 CNS
  TGI: 41 µM
SK-MEL-5 melanoma
  TGI: 27.3 µM
U251 CNS
  TGI: 36.7 µM
